Patent US20070082880A1 (priority 2005, published 2007)

Columns and labels:
PKCθ = PKCθ (Homo sapiens, UniProt Q04759); assay: PKCθ Scintiplate Assay; format: biochemical; details: average value when one or more samples were tested
Method: This assay detects the phosphorylation of a biotinylated substrate by kinase utilizing radiolabeled ATP (ATP γ P33). The enzyme is either recombinant full length PKCθ (Panvera, P2996) or the purified recombinant active kinase domain of full length PKCθ (amino acids 362-706). The substrate in this assay is a biotinylated peptide with a sequence of biotin-[…]-CONH2. The assay buffer is composed of 100 mM Hepes, pH7.5, 2 mM MgCl2, 20 mM β-glycerophosphate and 0.008% TritonX 100. A reaction mixture of ATP, ATP γ P33 (PerkinElmer), DTT, lipid activator, and the enzyme is prepared in the assay buffer and added to a 96 well polypropylene plate. The compound (diluted in DMSO in a separate 96-well polypropylene plate) is added to the reaction mixture and incubated at room temperature. Following the incubation, the peptide substrate is added to the reaction mixture to initiate the enzymatic reaction. The reaction is terminated with the addition of a stop solution (10 mM EDTA, 0.2% TritonX100, and 100 mM NaHPO4) and transferred from the assay plate to a washed streptavidin-coated 96 well scintiplate (PerkinElmer). The scintiplate is incubated at room temperature, washed in PBS with 0.1% TritonX 100, and counted in the 1450 Microbeta Trilux (Wallac, Version 2.60). Counts are recorded for each well as corrected counts per minute (CCPM). The counts are considered corrected because they are adjusted according to a P33 normalization protocol, which corrects for efficiency and background differences between the instrument detectors (software version 4.40.01).

[1] = biological target: T1, human PKCθ full length enzyme (Homo sapiens, UniProt Q04759); assay: PKCθ IMAP Assay; format: biochemical; details: average value when one or more samples were tested; ATP 6 uM, PKCθ 1 nM
T1 construct: human PKCθ full length enzyme (Panvera Catalog No. P2996); purchased Panvera P2996
Method in brief: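 IMAP fluorescence polarization after 20 min with binding beads measured phosphorylation of 100 nM 5FAM-peptide. Reactions held 1 nM full-length human PKCθ, 6 uM ATP, 5% DMSO and DTT-containing buffer, 25 min at room temperature. Compounds tested as 2:1 serial dilutions; controls lacked ATP or enzyme.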

T1 sequence (Q04759 whole entry): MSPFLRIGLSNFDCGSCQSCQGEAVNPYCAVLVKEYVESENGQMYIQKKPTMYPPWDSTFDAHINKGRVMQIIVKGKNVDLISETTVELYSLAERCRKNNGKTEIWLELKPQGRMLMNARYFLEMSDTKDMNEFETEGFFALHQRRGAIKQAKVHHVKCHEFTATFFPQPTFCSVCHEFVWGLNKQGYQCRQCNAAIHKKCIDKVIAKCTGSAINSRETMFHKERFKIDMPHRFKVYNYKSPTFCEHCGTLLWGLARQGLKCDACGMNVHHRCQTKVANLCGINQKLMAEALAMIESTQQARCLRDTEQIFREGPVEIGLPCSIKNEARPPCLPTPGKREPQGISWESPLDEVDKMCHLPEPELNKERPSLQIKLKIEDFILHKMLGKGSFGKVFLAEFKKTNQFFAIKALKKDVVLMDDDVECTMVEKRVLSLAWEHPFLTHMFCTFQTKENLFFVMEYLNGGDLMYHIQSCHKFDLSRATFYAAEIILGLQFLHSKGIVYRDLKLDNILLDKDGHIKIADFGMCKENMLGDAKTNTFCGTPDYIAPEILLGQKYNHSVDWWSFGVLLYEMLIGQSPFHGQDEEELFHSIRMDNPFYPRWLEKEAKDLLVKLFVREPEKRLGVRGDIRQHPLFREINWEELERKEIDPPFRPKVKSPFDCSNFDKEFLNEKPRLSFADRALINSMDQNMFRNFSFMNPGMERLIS
PKCθ, sequence (Q04759 362-706 limits assumed): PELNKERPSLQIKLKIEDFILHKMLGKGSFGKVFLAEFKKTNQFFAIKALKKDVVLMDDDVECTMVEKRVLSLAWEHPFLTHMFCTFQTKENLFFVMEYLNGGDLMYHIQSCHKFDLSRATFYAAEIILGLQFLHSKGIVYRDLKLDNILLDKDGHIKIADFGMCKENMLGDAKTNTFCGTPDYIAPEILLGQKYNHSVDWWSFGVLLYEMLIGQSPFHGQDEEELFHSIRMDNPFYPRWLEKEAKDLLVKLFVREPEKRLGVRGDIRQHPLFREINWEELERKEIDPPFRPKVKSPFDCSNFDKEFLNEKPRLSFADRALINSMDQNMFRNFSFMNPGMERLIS

| Compound | IC50 (PKCθ) | melting point | IC50 [1] |
| --- | --- | --- | --- |
| Cc1cc(Nc2c(C#N)cnc3sc(-c4ccccc4)cc23)cc2cc[nH]c12 [Compound 120, 4-[(7-methyl-1H-indol-5-yl)amino]-2-phenylthieno[2,3-b]pyridine-5-carbonitrile] | 120000 nM | – | – |
| Cn1ccc2cc(Nc3c(C#N)cnc4sc(-c5ccccc5)cc34)ccc21 [Compound 134, 4-[(1-methyl-1H-indol-5-yl)amino]-2-phenylthieno[2,3-b]pyridine-5-carbonitrile] | > 200000 nM | – | – |
| N#Cc1cnc2sc(-c3ccccc3)cc2c1NCc1cccc2[nH]ccc12 [Compound 125, 4-(1H-indol-4-ylmethylamino)-2-phenylthieno[2,3-b]pyridine-5-carbonitrile] | > 30000 nM | – | – |
| CCOC(=O)/C=C/c1cc2c(Nc3ccc4[nH]ccc4c3)c(C#N)cnc2s1 [Compound 280, ethyl (2E)-3-[5-cyano-4-(1H-indol-5-ylamino)thieno[2,3-b]pyridin-2-yl]acrylate] | – | 226 °C | 605 nM |
| N#Cc1cnc2sc(CCc3ccccc3)cc2c1Nc1ccc2[nH]ccc2c1 [Compound 316, 4-(1H-Indol-5-ylamino)-2-(2-phenylethyl)thieno[2,3-b]pyridine-5-carbonitrile] | – | 150 °C (dec.) | 1690 nM |
| CN1CCN(Cc2ccc(-c3cc4c(Nc5ccc6[nH]ccc6c5)c(C#N)cnc4s3)cc2)CC1 [Compound 104, 4-(1H-indol-5-ylamino)-2-{4-[(4-methylpiperazin-1-yl)methyl]phenyl}thieno[2,3-b]pyridine-5-carbonitrile] | 280 nM | – | – |
| CCOC(=O)CCc1cc2c(Nc3ccc4[nH]ccc4c3)c(C#N)cnc2s1 [Compound 284, ethyl 3-[5-cyano-4-(1H-indol-5-ylamino)thieno[2,3-b]pyridin-2-yl]propanoate] | – | 202 °C | 657 nM |
| CN1CCN(CCCCc2cc3c(Nc4ccc5[nH]ccc5c4)c(C#N)cnc3s2)CC1 [Compound 274, 4-(1H-indol-5-ylamino)-2-[4-(4-methylpiperazin-1-yl)butyl]thieno[2,3-b]pyridine-5-carbonitrile] | – | 120 °C (dec.) | 983 nM |
| N#Cc1cnc2sc(-c3ccccc3)cc2c1Oc1ccc2[nH]ccc2c1 [Compound 130, 4-(1H-indol-5-yloxy)-2-phenylthieno[2,3-b]pyridine-5-carbonitrile] | – | 219 to 221 °C | 9300 nM |
| N#Cc1cnc2sc(CN3CCCC3)cc2c1Nc1ccc2[nH]ccc2c1 [Compound 267, 4-(1H-indol-5-ylamino)-2-(pyrrolidin-1-ylmethyl)thieno[2,3-b]pyridine-5-carbonitrile] | – | 212 to 215 °C | 3210 nM |
| N#Cc1cnc2sc(/C=C/C(=O)O)cc2c1Nc1ccc2[nH]ccc2c1 [Compound 281, (2E)-3-[5-cyano-4-(1H-indol-5-ylamino)thieno[2,3-b]pyridin-2-yl]acrylic acid] | – | 230 °C (dec.) | 1960 nM |
| N#Cc1c[n+]([O-])c2sc(-c3ccccc3)cc2c1Nc1ccc2[nH]ccc2c1 [Compound 500, 4-(1H-indol-5-ylamino)-2-phenylthieno[2,3-b]pyridine-5-carbonitrile 7-oxide] | – | > 245 °C | 16800 nM |
| N#Cc1cnc2sc(-c3ccccc3)cc2c1NCc1ccc2[nH]ccc2c1 [Compound 124, 4-(1H-indol-5-ylmethylamino)-2-phenylthieno[2,3-b]pyridine-5-carbonitrile] | – | 219 to 221 °C | 3700 nM |

The remaining compounds from weak to strong by IC50 [1], led by results:

| IC50 (PKCθ) | melting point | IC50 [1] | Compound |
| --- | --- | --- | --- |
| – | > 260 °C | 550 nM | Cc1c(Nc2c(C#N)cnc3sc(C#Cc4ccc(N(C)C)nc4)cc23)ccc2[nH]ccc12 [Compound 445, 2-{[6-(dimethylamino)pyridin-3-yl]ethynyl}-4-[(4-methyl-1H-indol-5-yl)amino]thieno[2,3-b]pyridine-5-carbonitrile] |
| – | 175 °C | 251 nM | Cc1c(Nc2c(C#N)cnc3sc(CCC(=O)N4CCCC4)cc23)ccc2[nH]ccc12 [Compound 315, 4-[(4-methyl-1H-indol-5-yl)amino]-2-(3-oxo-3-pyrrolidin-1-ylpropyl)thieno[2,3-b]pyridine-5-carbonitrile] |
| – | 287 °C | 219 nM | Cc1c(Nc2c(C#N)cnc3sc(C(=O)O)cc23)ccc2[nH]ccc12 [Compound 247, 5-cyano-4-[(4-methyl-1H-indol-5-yl)amino]thieno[2,3-b]pyridine-2-carboxylic acid] |
| – | > 250 °C | 176 nM | Cc1c(Nc2c(C#N)cnc3sc(C#Cc4cc(CN(C)C)ccn4)cc23)ccc2[nH]ccc12 [Compound 444, 2-({4-[(dimethylamino)methyl]pyridin-2-yl}ethynyl)-4-[(4-methyl-1H-indol-5-yl)amino]thieno[2,3-b]pyridine-5-carbonitrile] |
| – | 216 to 218 °C | 171 nM | Cc1c(Nc2c(C#N)cnc3sc(C#Cc4coc(CN5CCN(C)CC5)c4)cc23)ccc2[nH]ccc12 [Compound 447, 4-[(4-methyl-1H-indol-5-yl)amino]-2-({5-[(4-methylpiperazin-1-yl)methyl]-3-furyl}ethynyl)thieno[2,3-b]pyridine-5-carbonitrile] |
| – | 195 to 197 °C | 170 nM | CN1CCN(CCC#Cc2cc3c(Nc4ccc5[nH]ccc5c4)c(C#N)cnc3s2)CC1 [Compound 221, 4-(1H-indol-5-ylamino)-2-[4-(4-methylpiperazin-1-yl)but-1-yn-1-yl]thieno[2,3-b]pyridine-5-carbonitrile] |
| – | 198 to 200 °C | 125 nM | CN(C)Cc1cccc(-c2cc3c(Nc4ccc5[nH]ccc5c4)c(C#N)cnc3s2)n1 [Compound 443, 2-{6-[(dimethylamino)methyl]pyridin-2-yl}-4-(1H-indol-5-ylamino)thieno[2,3-b]pyridine-5-carbonitrile] |
| – | 185 to 187 °C | 83 nM | Cc1c(Nc2c(C#N)cnc3sc(C#Cc4ccc(CN(C)C)s4)cc23)ccc2[nH]ccc12 [Compound 448, 2-({5-[(dimethylamino)methyl]-2-thienyl}ethynyl)-4-[(4-methyl-1H-indol-5-yl)amino]thieno[2,3-b]pyridine-5-carbonitrile] |
| – | 255 °C | 68 nM | COC(=O)c1cc2c(Nc3ccc4[nH]ccc4c3C)c(C#N)cnc2s1 [Compound 245, methyl 5-cyano-4-[(4-methyl-1H-indol-5-yl)amino]thieno[2,3-b]pyridine-2-carboxylate] |
| – | 256 °C | 48 nM | Cc1c(Nc2c(C#N)cnc3sc(C(=O)N4CCCC4)cc23)ccc2[nH]ccc12 [Compound 249, 4-[(4-methyl-1H-indol-5-yl)amino]-2-(pyrrolidin-1-ylcarbonyl)thieno[2,3-b]pyridine-5-carbonitrile] |
| – | 329 °C | 47 nM | Cc1c(Nc2c(C#N)cnc3sc(/C=C/C(=O)O)c(C)c23)ccc2[nH]ccc12 [Compound 287, (2E)-3-{5-Cyano-3-methyl-4-[(4-methyl-1H-indol-5-yl)amino]thieno[2,3-b]pyridin-2-yl}acrylic acid] |
| – | 261 °C | 46 nM | Cc1c(Nc2c(C#N)cnc3scc(C)c23)ccc2[nH]ccc12 [Compound 481, 3-Methyl-4-[(4-methyl-1H-indol-5-yl)amino]thieno[2,3-b]pyridine-5-carbonitrile] |
| – | 230 °C | 41 nM | Cc1c(Nc2c(C#N)cnc3sc(C4=CCN(C)CC4)cc23)ccc2[nH]ccc12 [Compound 477, 4-[(4-Methyl-1H-indol-5-yl)amino]-2-(1-methyl-1,2,3,6-tetrahydropyridin-4-yl)thieno[2,3-b]pyridine-5-carbonitrile] |
| – | 228 °C | 31 nM | Cc1c(Nc2c(C#N)cnc3sc(C4=CCN(S(C)(=O)=O)CC4)cc23)ccc2[nH]ccc12 [Compound 475, 4-[(4-methyl-1H-indol-5-yl)amino]-2-[1-(methylsulfonyl)-1,2,3,6-tetrahydropyridin-4-yl]thieno[2,3-b]pyridine-5-carbonitrile] |
| – | 182 to 184 °C | 23 nM | Cc1c(Nc2c(C#N)cnc3sc(-c4ccc(OCCN(C)C)cc4)cc23)ccc2[nH]ccc12 [Compound 494, 2-{4-[2-(dimethylamino)ethoxy]phenyl}-4-[(4-methyl-1H-indol-5-yl)amino]thieno[2,3-b]pyridine-5-carbonitrile] |
| – | 130 °C (dec.) | 18 nM | Cc1c(Nc2c(C#N)cnc3sc(C#Cc4cncc(CN(C)C)c4)cc23)ccc2[nH]ccc12 [Compound 452, 2-({5-[(dimethylamino)methyl]pyridin-3-yl}ethynyl)-4-[(4-methyl-1H-indol-5-yl)amino]thieno[2,3-b]pyridine-5-carbonitrile] |
